{
  "source": "paper PMC10448909",
  "about": "(Cancer Research Communications, 2023)",
  "key": {"[1]": {"system": "advanced solid tumors", "conditions": "patients with advanced solid tumors; cited from earlier work"}, "[2]": {"system": "patient-derived renal cell carcinoma xenografts", "set-up": "method as in earlier work", "conditions": "with sunitinib, cabozantinib, axitinib; Friese-Hamim M, personal communication; cited from earlier work"}, "[3]": {"system": "MetAP2", "test": "Met-EF1α pharmacodynamic biomarker in tumor biopsies", "type": "in vivo, human", "conditions": "cycle 2, day 1", "description": "(§1) Tumor biopsies were collected during the screening period and on cycle 2, day 1. White blood cell (WBC) samples were collected during the screening period, predose on days 1, 2, 8, and 15 of cycle 1 and postdose on days 1 and 15 of cycle 1. In addition, WBC samples were collected predose on days 1 and 15 of cycle 2.\n(§2) No formal significance level was defined for this study and all analyses were considered descriptive."}, "[4]": {"system": "advanced solid tumors", "test": "Antitumor activity by RECIST v1.1", "type": "in vivo, human", "method": "Efficacy endpoints included best overall response [BOR: complete response (CR), partial response (PR), stable disease (SD), or progressive disease] according to the RECIST v1.1. criteria ([20]), clinical benefit (defined as CR, PR, or SD for ≥12 weeks) and progression-free survival (PFS). PFS was defined as time from first dose to objective disease progression or death, whichever occurred first. CT scans or MRI were performed predose to document the baseline tumor status using the most appropriate criteria for the malignancy type. Target and non-target lesions were selected on the basis of the initial scan. Clinical efficacy was assessed by the investigators according to RECIST v1.1 every two cycles (starting on day 1 of cycle 3).\nFor the efficacy analysis, objective response and clinical benefit were summarized and 95% exact Clopper–Pearson confidence intervals (CI) were estimated ([21]). Kaplan–Meier estimates were calculated for PFS and the CI for the median PFS was calculated according to Brookmeyer and Crowley ([22])."}, "[5]": {"system": "MetAP2", "test": "Met-EF1α pharmacodynamic biomarker in white blood cells", "type": "in vivo, human", "conditions": "12 mg once daily and higher, from cycle 1, day 15 onward; no obvious dose correlation", "description": "as §1, §2"}, "[6]": {"system": "human tumor cell xenografts in mice", "set-up": "method as in El Bawab S, personal communication", "conditions": "defined by preclinical modeling; ref El Bawab S, personal communication; cited from earlier work"}, "[7]": {"system": "metastatic renal carcinoma", "set-up": "method as in PMID 10561320", "conditions": "phase II, patients with metastatic renal carcinoma; cited from earlier work"}, "[8]": {"conditions": "cited from earlier work"}, "[9]": {"conditions": "cited from earlier work", "remark": "listed apart in the source"}},
  "note": "Where two headings read alike, the source gives them in different places.",
  "data": [
    {"smiles": "CO[C@@H](C(=O)N[C@H]1CC[C@@H](OC(=O)C2CCCCC2)CNC1=O)[C@H](O)[C@@H](O)[C@H](O)/C=C/C(C)(C)C", "note": "[LAF389]", "values": [
      {"measurement": "Objective responses", "setting": "[1]", "result": "failed to show any objective responses"}
    ]},
    {"smiles": "O=C(NCc1cc(F)cc(F)c1)[C@@]1(O)CCN(c2ccc3[nH]ccc3c2)C1=O", "note": "[M8891]", "values": [
      {"measurement": "Antitumor activity in combination with VEGFR-targeted TKIs", "setting": "[2]", "result": "strong and durable antitumor activity"},
      {"measurement": "Met-EF1α accumulation in tumors", "setting": "[3]; 7 to 35 mg once daily", "result": "tended to increase up to 35 mg once daily in a dose-dependent manner"},
      {"measurement": "Met-EF1α levels in tumor", "setting": "[3]; ≥35 mg once daily", "result": "≥ 125", "unit": "μg/mg protein"},
      {"measurement": "Duration of stable disease", "setting": "[4]; 7 patients with BOR of SD", "result": "42 to 123", "unit": "days"},
      {"measurement": "Objective responses", "setting": "[4]; all doses, n = 27", "result": "no objective responses"},
      {"measurement": "Pharmacodynamic response in WBCs", "setting": "[5]", "result": "low and variable pharmacodynamic response"},
      {"measurement": "Target Met-EF1α level expected to be correlated with efficacy", "setting": "[6]", "result": 125, "unit": "μg/mg protein"}
    ]},
    {"smiles": "CO[C@@H]1[C@H](OC(=O)NC(=O)CCl)CC[C@]2(CO2)[C@H]1[C@@]1(C)O[C@@H]1CC=C(C)C", "note": "[TNP-470]", "values": [
      {"measurement": "Objective responses", "setting": "[7]", "result": "failed to show any significant objective responses"},
      {"measurement": "Neurotoxicity in phase I studies", "setting": "[8]", "result": "considerable neurotoxicity"},
      {"measurement": "Pharmacokinetic variability in phase I studies", "setting": "[9]", "result": "high pharmacokinetic variability"}
    ]}
  ]
}
